Experimental data: the supplement of paper PMC11208160

Assay: recombinant barcode read abundance after kanamycin selection (control-corrected) (log10(CPM+1)); higher = more efficient recombination; sequences stand for … in AGTGCAGAGAAAATCGGCCAGTTTTCTCTGCCTGCAGTCCGCATGCCGT…AGATTTATGCAGCGGACTGCCTTTCTCCCAAAGTGATAAACCGGACAGTATCATGGACCGGTTTTCCCGGTAATCCGTATTTGCAAGGTTGGTTTCACT; site = the 11-nt target
Outline: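 A vector carrying a T7-inducible recombinase and the last 73 bp of the bridge RNA received, by Gibson cloning, oligos encoding a promoter, target, barcode and the first 104 bridge RNA bases under J23119. The pooled constructs entered E. coli together with a donor plasmid by electroporation. Selection used chloramphenicol/ampicillin/kanamycin with 0.1 mM IPTG, with chloramphenicol/ampicillin LB agar as the control, each in two replicates. Recombination efficiency is the averaged, control-corrected counts-per-million of barcodes at recombinant junctions, reported as log10(CPM+1).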
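Also: IS621 recombinase and bridge RNA in Escherichia coli cells.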

| Sequence | recombinant barcode read abundance (log10) |
| --- | --- |
| AGGAGCCCTTGGGTTCTAACCTGTTGCTC (site AGGAGCCCTCA) | 0.152 |
| AGGAGCCCTTGGGTTCTAACCTGTTGCTC (site AGGAGCCCTGA) | 0.377 |
| AGGAGCCCTTGGGTTCTAACCTGTTGCTC (site AGGAGCCCTTA) | 0.0844 |
| AGGAGCCCTTGGGTTCTAACCTGTTGCTT (site AGGAGCCCTAA) | 1.25 |
| AGGAGCCCTTGGGTTCTAACCTGTTGCTT (site AGGAGCCCTCA) | 0.0777 |
| AGGAGCCCTTGGGTTCTAACCTGTTGCTT (site AGGAGCCCTGA) | 0.0286 |
| AGGAGCCCTTGGGTTCTAACCTGTTGCTT (site AGGAGCCCTTA) | 0.271 |
| AGGAGCGCTTGGGTTCTAACCTGTTGCCT (site AGCAGCTCTAG) | 0.105 |
| AGGAGCGCTTGGGTTCTAACCTGTTGCCT (site AGGAGCGCTAG) | 1.95 |
| AGGAGTCCTTGGGTTCTAACCTGTTGCAG (site AGGAGTCCTCT) | 2.24 |
| AGGAGTCCTTGGGTTCTAACCTGTTGCAG (site GTACAAGCTAG) | 0.239 |
| AGGCAGACTTGGGTTCTAACCTGTTGCCA (site AGGAAGACTTG) | 0.0571 |
| AGGCAGACTTGGGTTCTAACCTGTTGCCA (site AGGCAGACTTG) | 0.699 |
| AGGCAGACTTGGGTTCTAACCTGTTGCCA (site AGGGAGACTTG) | 0.216 |
| AGGCAGACTTGGGTTCTAACCTGTTGCCA (site AGGTAGACTTG) | 0.639 |
| AGGCAGTCTTGGGTTCTAACCTGTTGCCT (site AGGCAGTCTAG) | 0.444 |
| AGGCAGTCTTGGGTTCTAACCTGTTGCCT (site AGGCCGTCTAC) | 0.0845 |
| AGGCGCCCTTGGGTTCTAACCTGTTGCAA (site AGGCGCCCTAT) | 0.187 |
| AGGCGCCCTTGGGTTCTAACCTGTTGCAA (site AGGCGCCCTCT) | 0.0506 |
| AGGCGCCCTTGGGTTCTAACCTGTTGCAA (site AGGCGCCCTGT) | 0.0953 |
| AGGCGCCCTTGGGTTCTAACCTGTTGCAA (site AGGCGCCCTTT) | 0.635 |
| AGGCTGACTTGGGTTCTAACCTGTTGCCT (site AGGCTGACTAG) | 0.94 |

| Sequence | recombinant barcode read abundance (log10) |
| --- | --- |
| AGGCTGACTTGGGTTCTAACCTGTTGCCT (site AGGCTGCCTAG) | 0.0128 |
| AGGCTGACTTGGGTTCTAACCTGTTGCCT (site AGGCTGGCTAG) | 0.0298 |
| AGGCTGACTTGGGTTCTAACCTGTTGCCT (site AGGCTGTCTAG) | 0.139 |
| AGGCTTACTTGGGTTCTAACCTGTTGCAG (site AGGCTTACTCT) | 1.47 |
| AGGCTTACTTGGGTTCTAACCTGTTGCAG (site AGTCCTACTCT) | 0.0844 |
| AGGGACTCTTGGGTTCTAACCTGTTGCCG (site AGGGACTCTCG) | 1.71 |
| AGGGACTCTTGGGTTCTAACCTGTTGCCG (site TGGGACACTCG) | 0.0423 |
| AGGGAGACTTGGGTTCTAACCTGTTGCTC (site AGGGAGACTGA) | 2.64 |
| AGGGAGACTTGGGTTCTAACCTGTTGCTC (site CACTTTGCTAG) | 0.151 |
| AGGGATCCTTGGGTTCTAACCTGTTGCGG (site AAGTATCCTCC) | 0.032 |
| AGGGATCCTTGGGTTCTAACCTGTTGCGG (site AGGGATCCTCC) | 2.7 |
| AGGGCACCTTGGGTTCTAACCTGTTGCCA (site AGGGCACCTTG) | 1.26 |
| AGGGCACCTTGGGTTCTAACCTGTTGCCA (site ATGGCACCTAG) | 0.186 |
| AGGGCTTCTTGGGTTCTAACCTGTTGCTA (site ACGGCTTCTTA) | 0 |
| AGGGCTTCTTGGGTTCTAACCTGTTGCTA (site AGGGCTTCTTA) | 1.87 |
| AGGGGAGCTTGGGTTCTAACCTGTTGCGG (site AGGGGAGCTCC) | 2.35 |
| AGGGGAGCTTGGGTTCTAACCTGTTGCGG (site ATGGGAGCTTC) | 0.0749 |
| AGGGGATCTTGGGTTCTAACCTGTTGCCT (site AGGGGATCTAG) | 1.86 |
| AGGGGATCTTGGGTTCTAACCTGTTGCCT (site AGTGGAGCTAG) | 0.0518 |
| AGGGGCACTTGGGTTCTAACCTGTTGCCG (site ACGGTCACTCG) | 0.104 |
| AGGGGCACTTGGGTTCTAACCTGTTGCCG (site AGGGGCACTCG) | 1.83 |
| AGGGGCTCTTGGGTTCTAACCTGTTGCTG (site ACGGGCTCTAA) | 0.0932 |

| Sequence | recombinant barcode read abundance (log10) |
| --- | --- |
| AGGGGCTCTTGGGTTCTAACCTGTTGCTG (site AGGGGCTCTCA) | 3.01 |
| AGGTAACCTTGGGTTCTAACCTGTTGCCT (site AGGTAACCTAG) | 0.401 |
| AGGTAACCTTGGGTTCTAACCTGTTGCCT (site CGGTAACCTAG) | 0.23 |
| AGGTAACCTTGGGTTCTAACCTGTTGCCT (site GGGTAACCTAG) | 0.885 |
| AGGTAACCTTGGGTTCTAACCTGTTGCCT (site TGGTAACCTAG) | 0.179 |
| AGGTCAACTTGGGTTCTAACCTGTTGCCG (site AGGTCAACTCG) | 0.0699 |
| AGGTCAACTTGGGTTCTAACCTGTTGCCG (site TAAGGTCCTAA) | 0.0279 |
| AGGTCACCTTGGGTTCTAACCTGTTGCCT (site AGGTCACCTAA) | 0.0905 |
| AGGTCACCTTGGGTTCTAACCTGTTGCCT (site AGGTCACCTAC) | 0.897 |
| AGGTCACCTTGGGTTCTAACCTGTTGCCT (site AGGTCACCTAG) | 1.83 |
| AGGTCACCTTGGGTTCTAACCTGTTGCCT (site AGGTCACCTAT) | 0.221 |
| AGGTCCGCTTGGGTTCTAACCTGTTGCTA (site AGGTCCGCTTA) | 1.4 |
| AGGTCCGCTTGGGTTCTAACCTGTTGCTA (site CACCAGCCTAT) | 0.026 |
| AGGTCCTCTTGGGTTCTAACCTGTTGCAT (site AGGTCCTCTAA) | 0.282 |
| AGGTCCTCTTGGGTTCTAACCTGTTGCAT (site AGGTCCTCTAC) | 0.0867 |
| AGGTCCTCTTGGGTTCTAACCTGTTGCAT (site AGGTCCTCTAG) | 0.707 |
| AGGTCCTCTTGGGTTCTAACCTGTTGCAT (site AGGTCCTCTAT) | 2.24 |
| AGGTCCTCTTGGGTTCTAACCTGTTGCTA (site AGGTCCTCTTA) | 1.96 |
| AGGTCCTCTTGGGTTCTAACCTGTTGCTA (site TGATCCTCTTA) | 0.0783 |
| AGGTGCTCTTGGGTTCTAACCTGTTGCCT (site AAGTGCTCTAG) | 0.0629 |
| AGGTGCTCTTGGGTTCTAACCTGTTGCCT (site ACGTGCTCTAG) | 0.179 |
| AGGTGCTCTTGGGTTCTAACCTGTTGCCT (site AGGTGCTCTAG) | 1.6 |

| Sequence | recombinant barcode read abundance (log10) |
| --- | --- |
| AGGTGCTCTTGGGTTCTAACCTGTTGCCT (site ATGTGCTCTAG) | 0.107 |
| AGGTGTCCTTGGGTTCTAACCTGTTGCTT (site AGGTGTCCTAA) | 1.4 |
| AGGTGTCCTTGGGTTCTAACCTGTTGCTT (site CGGTGTCCTAA) | 0.0102 |
| AGGTTAGCTTGGGTTCTAACCTGTTGCTA (site AGGTTAGCTTA) | 0.0546 |
| AGGTTAGCTTGGGTTCTAACCTGTTGCTA (site GCAAGTACTCT) | 0.538 |
| AGTAACCCTTGGGTTCTAACCTGTTGCCT (site AATAACCCTAG) | 0.0627 |
| AGTAACCCTTGGGTTCTAACCTGTTGCCT (site ACTAACCCTAG) | 0.158 |
| AGTAACCCTTGGGTTCTAACCTGTTGCCT (site AGTAACCCTAG) | 1.22 |
| AGTAACCCTTGGGTTCTAACCTGTTGCCT (site ATTAACCCTAG) | 0.137 |
| AGTAAGACTTGGGTTCTAACCTGTTGCAT (site AGTAAGACTAA) | 0.197 |
| AGTAAGACTTGGGTTCTAACCTGTTGCAT (site AGTAAGACTAC) | 0.0256 |
| AGTAAGACTTGGGTTCTAACCTGTTGCAT (site AGTAAGACTAG) | 0.423 |
| AGTAAGACTTGGGTTCTAACCTGTTGCAT (site AGTAAGACTAT) | 1.41 |
| AGTAAGCCTTGGGTTCTAACCTGTTGCAG (site ACTAAGCCTCC) | 0.133 |
| AGTAAGCCTTGGGTTCTAACCTGTTGCAG (site AGTAAGCCTCT) | 1.12 |
| AGTAAGCCTTGGGTTCTAACCTGTTGCCT (site AGTAAGCCTAG) | 0.864 |
| AGTAAGCCTTGGGTTCTAACCTGTTGCCT (site AGTCAGCCTAG) | 0.243 |
| AGTAAGCCTTGGGTTCTAACCTGTTGCCT (site AGTGAGCCTAG) | 0.187 |
| AGTAAGCCTTGGGTTCTAACCTGTTGCCT (site AGTTAGCCTAG) | 0.173 |
| AGTACGTCTTGGGTTCTAACCTGTTGCTT (site AGTACGTCTAA) | 0.201 |
